Consider 11 molecules from patent US20240182460A1, “ALLOSTERIC CHROMENONE INHIBITORS OF PHOSPHOINOSITIDE 3-KINASE (PI3K) FOR THE TREATMENT OF DISEASE” (PETRA PHARMA CORPORATION, priority 2022, published 2024).

A short description of data set [1]: Metabolic stability and intrinsic clearance in human liver microsomes (MICS). As to conditions: human, microsomes, pH 7.4. Format: in vitro ADME. As for the experimental part:
Metabolic Stability and Intrinsic Clearance in Liver Microsomes (MICS)
One objective of this assay is to measure in vitro metabolic stability of a test compound in liver microsomes of one or more different species. The concentration of a control compound in the reaction system is evaluated by LC/MS/MS for calculating intrinsic clearance of a test compound and estimating the stability of the control compound and test compound in liver microsomes of one or more different species.
Microsomes (MICS). Human Liver Microsomes (HLM), Monkey Liver Microsomes (MKLM), Dog Liver Microsomes (DLM), Rat Liver Microsomes (RLM), and Mouse Liver Microsomes (MLM) are obtained at a concentration of 20 mg/mL protein from commercial sources and stored in a −80° C. freezer. Prior to use, liver microsomes are removed from the freezer and allowed to thaw in a 37° C. water bath and then stored on wet ice.
Stock Solutions. Test Compound (TC) Stock Solutions are prepared in DMSO at a concentration of 10 mM and stored for later use. Positive Control (PC) Stock Solutions of verapamil·HCL (FW: 491.1 g/mol) in DMSO are prepared at a concentration of 10 mM (4.91 mg/mL), and stored at the condition same as the stock solutions of test compounds.
Phosphate Buffer. Phosphate Buffer (100 mM, pH 7.4) is prepared by combining a Solution A and a Solution B as follows.
To prepare Solution A, 7.098 g of disodium hydrogen phosphate was combined with 500 mL of pure water and sonicated to dissolve. To prepare the Solution B, 3.400 g of potassium dihydrogen phosphate was combined with 250 mL of pure water and sonicated to dissolve. Solution A was placed on a stirrer and Solution B was slowly added into Solution A until the pH reached 7.4.
NADPH Solution. A 10 mM NADPH Solution is prepared by dissolving NADPH (MW: 833.4 g/mol) at 8.334 mg/mL in phosphate buffer (100 mM, pH 7.4).
Microsome Master Solution. A Microsome Master Solution is prepared by adding 6.25 μL microsomes (20 mg/mL) to 216.25 μL Phosphate Buffer (100 mM). The final concentration is Phosphate Buffer (100 mM); microsomes (0.5 mg/mL).
Dilution of Stock Solutions. The TC Stock Solutions (10 mM in DMSO) and the PC Stock Solutions (10 mM in DMSO) are diluted by adding 3 μL of the TC Stock Solution or the PC Stock Solution to 297 μL of 50% acetonitrile/50% water.
Incubation. Two separated experiments were performed as follows. a) With Cofactors (NADPH): 25 μL of 10 mM NADPH was added to the incubations. The final concentrations of
microsomes and NADPH were 0.5 mg/mL and 1 mM, respectively. b) Without Cofactors (NADPH): 25 μL of 100 mM Phosphate buffer was added to the incubations. The final concentration of microsomes was 0.5 mg/mL. The mixture was pre-warmed at 37° C. for 10 minutes.
The reaction was started with the addition of 2.5 μL of 100 μM PC solution or TC solutions.
Verapamil was used as PC in this study. The final concentration of test compound or control compound was 1 μM. The incubation solution was incubated in water batch at 37° C.
Reaction Termination. Aliquots of 30 μL were taken from the reaction solution at 0.5, 5, 15, 30 and 60 minutes and added to plates. The reaction was stopped by the addition of 5 volumes of cold acetonitrile and a solution containing 100 nM alprazolam, 200 nM caffeine and 100 nM tolbutamide.
Sampling. The plates containing the terminated reactions were centrifuged at 4000 rpm for 30 minutes. Supernatant of each compound (40 μL) was transferred into a 96-well analysis plate.
Four compound samples are pooled together into one cassette and diluted by adding 160 μL of pure water. All incubations are performed in duplicate.
Analysis and Data Processing. Quantitative LC-MS analysis is performed, and peak areas are determined from extracted ion chromatograms. Percent parent remaining was calculated from peak area of TC or PC. The slope value, k, is determined by linear regression of the natural logarithm of percent parent remaining vs. incubation time curve. […]
(In general: Microsomes from liver hold many membrane-bound enzymes, among them those of drug oxidation.)

Data set [2] has as its target PI3Kα E545K (Homo sapiens, UniProt P42336, E545K). Description: PI3Kα E545K mutant in vitro cell based assay, MDA-MB-361 cells. Further details: MDA-MB-361 (ATCC-HTB-27) cell line (PI3Kα E545K); host or cells: MDA-MB-361. As to conditions: MDA-MB-361 cell line, 0% FBS, no insulin, 3 hours treatment. From the text: PI3K-Alpha Kinase (PI3Kα) Activity: Wild-Type PI3Kα, H1047R Mutant PI3Kα, and E545K Mutant PI3Kα In Vitro Cell Based Assays and Determination of IC50 Values for Inhibitors
The MDA-MB-453 (ATCC-HTB-131) cell line (PI3Kα H1047R) and MCF-7 (ATCC-HTB-22) cell line (PI3Kα E545K), MDA-MB-361 (ATCC-HTB-27) cell line (PI3Kα E545K), and SKBR3 (ATCC-HTB-30) cell line (wild type PI3Kα) were obtained from the American Type Culture Collection (Manassas, VA). MDA-MB-453 cells were maintained in Dulbecco's Modified Eagle Media (DMEM, Gibco 12430) supplemented with 10% Fetal Bovine Serum, heat inactivated (FBS HI, Gibco 10082), 1× non-essential amino acids (NEAA, Gibco 11140), 1 mM sodium pyruvate (Gibco 11360) and 1× Anti-Anti (Gibco 15240). MCF-7 cells were maintained in Minimum Essential Media (MEM) (Gibco 11095) supplemented with 10% Fetal Bovine Serum, heat inactivated (FBS HI, Gibco 10082), 1× non-essential amino acids (NEAA, Gibco 11140), 1 mM sodium pyruvate (Gibco 11360), 1× Anti-Anti (Gibco 15240) and 10 μg/mL human insulin (Sigma I 9278). MDA-MB-361 cells were maintained in Dulbecco's Modified Eagle Media (DMEM, Gibco 12430) supplemented with 20% Fetal Bovine Serum, heat inactivated (FBS HI, Gibco 10082), 1× non-essential amino acids (NEAA, Gibco 11140), 1 mM sodium pyruvate (Gibco 11360) and 1× Anti-Anti (Gibco 15240). SKBR3 cells were maintained in McCoy's 5A (Gibco 16600) supplemented with 10% Fetal Bovine Serum, heat inactivated (FBS HI, Gibco 10082), and 1× Anti-Anti (Gibco 15240). Cultures were maintained in a humidified incubator at 37° C. under 5% CO2/95% air.
For compound testing in 0% FBS, MDA-MB-453, MCF-7 and SKBR3 cells were seeded at a density of 1.5×10^4, 1.0×10^4, and 1.0×10^4 cells, respectively, per well in white 384-well plates in 20 μl of Minimum Essential Media (MEM) assay media with 1×NEAA, 1 mM sodium pyruvate, and 1 μg/mL human insulin (Sigma 19278) (Assay Medium); while MDA-MB-361 cells were seeded at a density of 1.5×10^4 per well in white 384-well plates in 20 μl Assay Medium without insulin. After plating, cells were allowed to attach overnight. Compounds dissolved in 10 mM stock solutions in DMSO were serially diluted 1:3 in DMSO to generate a 10-point dilution series and plated using an acoustic liquid handler system (Echo 550 Series Liquid Handler, Labcyte). A 5× intermediate compound dilution plate in MEM with 1×NEAA and 1 mM sodium pyruvate (150 μM starting compound concentration in 1.5% DMSO) was then prepared. Five μl of the intermediate serially diluted compounds were added to the cell plate to final concentrations ranging from […] in 0.3% DMSO. 0.3% DMSO alone was used to establish the maximum (MAX) signal and GDC-0032 at a final concentration of 1 μM was used as a reference compound for the minimum (MIN) signal. After 3 hours treatment, the medium was removed, and the cells were lysed in 10 μL of 1× SureFire Lysis buffer with shaking for 10 minutes at room temperature. The Acceptor Mix (Reaction Buffer 1+Reaction Buffer 2+Activation Buffer+SureFire Ultra Acceptor Beads) was prepared by diluting Activation buffer 25-fold in combined Reaction Buffer 1 and Reaction Buffer 2.
The Acceptor beads were diluted 50-fold in the combined Reaction Buffers. Five μL of Acceptor Mix was added to each well, the plate was sealed and covered with foil and incubated for 1 hour at room temperature. The Donor Mix (dilution buffer+SureFire Ultra Donor Beads) was prepared by diluting Donor Beads 50-fold in dilution buffer. Five μL of the Donor Mix was added to each well and the plate sealed and covered with foil and incubated for 1-2 hours at room temperature in the dark. The plates were read on a Neo2 plate reader instrument from Biotek using standard AlphaLisa settings.
Compounds were tested in duplicate and the % inhibition at each compound concentration was used to generate two dose response curves. One IC50 was generated using average % inhibition at each compound concentration. […]

pIC50: −log10 of the molar value.

Sequence of PI3Kα E545K (P42336 whole entry E545K): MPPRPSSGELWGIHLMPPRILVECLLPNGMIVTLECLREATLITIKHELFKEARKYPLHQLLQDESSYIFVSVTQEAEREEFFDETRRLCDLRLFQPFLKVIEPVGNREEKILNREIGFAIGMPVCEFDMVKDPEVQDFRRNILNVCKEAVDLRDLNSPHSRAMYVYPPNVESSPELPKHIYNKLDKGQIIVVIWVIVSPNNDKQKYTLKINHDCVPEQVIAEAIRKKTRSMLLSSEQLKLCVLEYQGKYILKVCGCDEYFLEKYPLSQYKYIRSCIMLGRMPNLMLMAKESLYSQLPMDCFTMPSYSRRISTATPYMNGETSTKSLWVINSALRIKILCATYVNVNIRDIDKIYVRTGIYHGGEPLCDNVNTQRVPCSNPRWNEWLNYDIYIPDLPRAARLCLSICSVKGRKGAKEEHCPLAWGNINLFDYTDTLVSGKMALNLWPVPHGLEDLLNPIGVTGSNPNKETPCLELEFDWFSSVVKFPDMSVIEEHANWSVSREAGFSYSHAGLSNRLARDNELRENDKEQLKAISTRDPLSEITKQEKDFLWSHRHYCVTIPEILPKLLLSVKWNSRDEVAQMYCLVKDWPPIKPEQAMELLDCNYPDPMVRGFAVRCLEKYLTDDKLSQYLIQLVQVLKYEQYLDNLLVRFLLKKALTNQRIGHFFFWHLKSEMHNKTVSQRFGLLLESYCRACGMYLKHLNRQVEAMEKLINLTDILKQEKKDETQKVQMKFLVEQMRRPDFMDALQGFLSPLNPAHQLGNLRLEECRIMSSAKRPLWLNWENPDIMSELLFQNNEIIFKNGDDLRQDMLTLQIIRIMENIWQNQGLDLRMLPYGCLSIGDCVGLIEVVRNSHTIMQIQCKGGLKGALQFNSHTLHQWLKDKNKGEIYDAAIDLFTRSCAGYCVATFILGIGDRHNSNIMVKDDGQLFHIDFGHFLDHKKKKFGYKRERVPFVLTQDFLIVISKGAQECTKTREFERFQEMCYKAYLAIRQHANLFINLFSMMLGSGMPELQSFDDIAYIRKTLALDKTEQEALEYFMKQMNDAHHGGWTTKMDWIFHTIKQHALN
Sequence of PI3Kα E545K (P27986 whole entry partner): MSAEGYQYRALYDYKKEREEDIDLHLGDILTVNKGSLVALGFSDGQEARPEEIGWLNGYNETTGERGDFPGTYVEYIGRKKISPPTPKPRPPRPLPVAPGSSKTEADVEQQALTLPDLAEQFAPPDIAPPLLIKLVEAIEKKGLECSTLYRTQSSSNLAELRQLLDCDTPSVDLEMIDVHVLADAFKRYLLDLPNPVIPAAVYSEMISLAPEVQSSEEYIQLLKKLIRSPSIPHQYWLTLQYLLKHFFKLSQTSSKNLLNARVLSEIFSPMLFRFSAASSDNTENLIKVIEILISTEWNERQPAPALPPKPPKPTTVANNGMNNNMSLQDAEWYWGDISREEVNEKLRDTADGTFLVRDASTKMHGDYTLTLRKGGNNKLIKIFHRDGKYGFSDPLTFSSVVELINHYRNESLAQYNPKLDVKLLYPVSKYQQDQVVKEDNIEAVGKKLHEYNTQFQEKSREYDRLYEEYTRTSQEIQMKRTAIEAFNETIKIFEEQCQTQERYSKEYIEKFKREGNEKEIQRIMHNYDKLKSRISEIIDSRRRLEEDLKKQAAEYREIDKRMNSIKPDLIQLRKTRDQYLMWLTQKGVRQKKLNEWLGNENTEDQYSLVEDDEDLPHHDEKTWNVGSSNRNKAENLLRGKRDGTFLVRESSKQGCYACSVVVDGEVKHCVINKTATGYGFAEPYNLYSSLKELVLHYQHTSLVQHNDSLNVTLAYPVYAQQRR

Regarding `Cc1cc([C@@H](C)Oc2ccc(Cl)nc2S(N)(=O)=O)c2oc(-c3cnn(CC(C)(C)O)c3)c(C)c(=O)c2c1` [Example 2B, 6-Chloro-3-[(1R)-1-[2-[1-(2-hydroxy-2-methyl-propyl)pyrazol-4-yl]-3,6-dimethyl-4-oxo-chromen-8-yl]ethoxy]pyridine-2-sulfonamide], the microsomal CLint (commonly the capacity of the preparation to metabolise the compound, expressed as a volume cleared per time) at 1 μM in data set [1] was less than 50 µL/min/mg. Also, the pIC50 (in general, the IC50 on a negative log10 scale, so that one unit is a factor of ten) in data set [2] was more than 6.30.
In data set [1], `Cc1cc([C@@H](C)Oc2ccc(Cl)cc2S(N)(=O)=O)c2oc(-c3cnn(C)c3)c(C)c(=O)c2c1` [Example 99C, 5-Chloro-2-[(1R)-1-[3,6-dimethyl-2-(1-methylpyrazol-4-yl)-4-oxo-chromen-8-yl]ethoxy]benzenesulfonamide] displayed a microsomal CLint at 1 μM of less than 50 µL/min/mg. In data set [2], this molecule showed a pIC50 of more than 6.30.
On the same counts, the results for `Cc1cc([C@@H](C)Oc2ccc(Cl)nc2C(N)=O)c2oc(-c3cnc4ccoc4c3)c(C)c(=O)c2c1` [Example 80C, 6-Chloro-3-[(1R)-1-(2-furo[3,2-b]pyridin-6-yl-3,6-dimethyl-4-oxo-chromen-8-yl)ethoxy]pyridine-2-carboxamide] are less than 50 µL/min/mg and more than 6.30.
Regarding `Cc1cc([C@@H](C)Oc2ccc(Cl)nc2S(N)(=O)=O)c2oc(-c3cnn(C[C@@H](C)O)c3)c(C)c(=O)c2c1` [Example 4B, 6-Chloro-3-[(1R)-1-[2-[1-[(2R)-2-hydroxypropyl]pyrazol-4-yl]-3,6-dimethyl-4-oxo-chromen-8-yl]ethoxy]pyridine-2-sulfonamide], the microsomal CLint at 1 μM in data set [1] was less than 50 µL/min/mg. This molecule had a negative-log IC50 (pIC50) in data set [2] of more than 6.30.
On the same counts, the results for `Cc1cc([C@@H](C)Oc2ccc(Cl)nc2S(N)(=O)=O)c2oc(-c3cnc4ccoc4c3)c(C)c(=O)c2c1` [Example 22C, 6-Chloro-3-[(1R)-1-(2-furo[3,2-b]pyridin-6-yl-3,6-dimethyl-4-oxo-chromen-8-yl)ethoxy]pyridine-2-sulfonamide] are less than 50 µL/min/mg and more than 6.30.
The like results for `Cc1cc([C@@H](C)Oc2ccc(Cl)nc2C(N)=O)c2oc(-c3cnc(OC(C)C)nc3)c(C)c(=O)c2c1` [Example 79C, 6-Chloro-3-[(1R)-1-[2-(2-isopropoxypyrimidin-5-yl)-3,6-dimethyl-4-oxo-chromen-8-yl]ethoxy]pyridine-2-carboxamide] were, in that order, less than 50 µL/min/mg and more than 6.30.
On the same counts, the results for `CCn1cc2cc(-c3oc4c([C@@H](C)Oc5ccc(Cl)nc5C(N)=O)cc(C)cc4c(=O)c3C)ccc2n1` [Example 75C, 6-Chloro-3-[(1R)-1-[2-(2-ethylindazol-5-yl)-3,6-dimethyl-4-oxo-chromen-8-yl]ethoxy]pyridine-2-carboxamide] are less than 50 µL/min/mg and more than 6.30.
Turning to `Cc1cc([C@@H](C)Oc2ccc(F)cc2S(N)(=O)=O)c2oc(-c3cnn(C)c3)c(C)c(=O)c2c1` [Example 105C, 2-[(1R)-1-[3,6-Dimethyl-2-(1-methylpyrazol-4-yl)-4-oxo-chromen-8-yl]ethoxy]-5-fluoro-benzenesulfonamide], in data set [1], the microsomal CLint at 1 μM was less than 50 µL/min/mg. In data set [2], this molecule had a pIC50 of more than 6.30.
The like results for `Cc1cc([C@@H](C)Oc2ccc(F)nc2S(N)(=O)=O)c2oc(-c3ccccc3)c(C)c(=O)c2c1` [Example 74C, 3-[(1R)-1-(3,6-Dimethyl-4-oxo-2-phenyl-chromen-8-yl)ethoxy]-6-fluoro-pyridine-2-sulfonamide] were, in that order, less than 50 µL/min/mg and more than 6.30.
On the same counts, the results for `Cc1cc([C@@H](C)Oc2ccc(Cl)nc2C(N)=O)c2oc(-c3ccc4nn(C)cc4c3)c(C)c(=O)c2c1` [Example 11A, 6-Chloro-3-[(1R)-1-[3,6-dimethyl-2-(2-methylindazol-5-yl)-4-oxo-chromen-8-yl]ethoxy]pyridine-2-carboxamide] are less than 50 µL/min/mg and more than 6.30.
The like results for `Cc1cc([C@@H](C)Oc2ccc(Cl)cc2S(N)(=O)=O)c2oc(C3CC3)c(C)c(=O)c2c1` [Example 101C, 5-Chloro-2-[(1R)-1-(2-cyclopropyl-3,6-dimethyl-4-oxo-chromen-8-yl)ethoxy]benzenesulfonamide] were, in that order, less than 50 µL/min/mg and more than 6.30.
